# Measurements: patent publication US10669238B2, “Irreversible bruton's tyrosine kinase inhibitor” (HEFEI INSTITUTES OF PHYSICAL SCIENCE, CHINESE ACADEMY OF …, priority 2016, dated 2020)
# Target: BTK protein kinase (Homo sapiens, UniProt Q06187)
# Experiment: In vitro enzymatic activity against BTK (ADP-Glo)
# Assay type: biochemical
# Conditions: compound with BTK 4 hours at room temperature; ATP 10 μM, 37° C. 1 hour; values given in μM
# Experimental: In vitro enzymatic activity of the compounds against BTK was determined in a experimental assay of in vitro enzymatic activity using […] kit (purchased from Progema, USA).
# 9 μL of BTK protein kinase (at a concentration of 1.5 ng/μL) was used to react with compounds (1 μL) shown in the following table that were diluted three times in gradient at room temperature for 4 hours (the final concentration of the compound being 10 μM, 3 μM, 1 μM, 0.3 μM, 0.1 μM, 0.03 μM, 0.01 μM, 0.003 μM);
# 2 μL of ATP and 3 μL of the substrate Poly(4:1 Glu, Tyr)Peptide (Promega, USA) (the final concentrations being 10 μM and 0.2 μg/μL, respectively) were added to allow reaction at 37° C. for 1 hour;
# 5 μL of BTK kinase solution after reaction was taken and added into 5 μL of ADP-Glo™ (Promega, USA) reagent to allow reaction at room temperature for 40 mins so as to terminate the kinase reaction and exhaust the remaining ATP;
# 10 μL kinase detecting reagent was added to convert ADP to ATP, and newly synthesized ATP was detected using coupled luciferase/[…] reaction, then the IC50 values were calculated by using a plotting method based on the Envision reading.
# Chain of BTK protein kinase (Q06187 whole entry): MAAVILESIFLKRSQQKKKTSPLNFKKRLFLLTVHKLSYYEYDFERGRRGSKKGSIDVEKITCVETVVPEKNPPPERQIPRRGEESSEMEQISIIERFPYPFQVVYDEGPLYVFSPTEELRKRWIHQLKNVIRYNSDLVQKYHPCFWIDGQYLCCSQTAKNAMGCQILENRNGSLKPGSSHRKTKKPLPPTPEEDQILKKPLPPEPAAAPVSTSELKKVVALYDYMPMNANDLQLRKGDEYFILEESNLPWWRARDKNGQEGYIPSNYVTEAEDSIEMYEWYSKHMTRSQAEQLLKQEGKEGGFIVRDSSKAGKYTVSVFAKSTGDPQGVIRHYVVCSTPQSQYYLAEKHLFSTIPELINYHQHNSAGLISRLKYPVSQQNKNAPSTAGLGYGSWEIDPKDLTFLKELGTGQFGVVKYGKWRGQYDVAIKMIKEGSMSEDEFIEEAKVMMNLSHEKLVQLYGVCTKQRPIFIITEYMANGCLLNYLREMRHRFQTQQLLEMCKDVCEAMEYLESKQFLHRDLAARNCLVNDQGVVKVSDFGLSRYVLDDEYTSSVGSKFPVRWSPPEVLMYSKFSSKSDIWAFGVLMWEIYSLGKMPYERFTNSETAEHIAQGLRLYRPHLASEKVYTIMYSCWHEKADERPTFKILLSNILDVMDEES
row,Compound,IC50 [µM]
1,"Cc1c(NC(=O)c2ccc(C(C)(C)C)cc2)cccc1-c1cc(Nc2cccc(NC(=O)CCl)c2)c(=O)n(C)c1 [Compound 22, N-(3-(5-((3-chloroacetamidephenyl)amino)-1-methyl-6-oxo-1,6-dihydropyridin-3-yl)-2-methylphenyl)-4-(tert-butyl)benzamide]",5.53

# Same assay, conditions: compound with BTK 4 hours at room temperature; ATP 10 μM, 37° C. 1 hour; values in nM
row,Compound,IC50 [µM]
1,"C=CC(=O)Nc1cc(Nc2cc(-c3cccc(NC(=O)c4ccc5c(c4)OCCO5)c3C)cn(C)c2=O)ccc1C(=O)N1CCOCC1 [Compound 44, N-(3-(5-((3-acrylamide-4-(morpholin-4-carbonyl)phenyl)amino)-1-methyl-6-oxo-1,6-dihydropyridin-3-yl)-2-methylphenyl)-2,3-dihydrobenzo[b][1,4]dioxin-6-carboxamide]",0.072
2,"Cc1c(NC(=O)c2ccc(C(C)(C)C)cc2)cccc1-c1cc(Nc2ccc(C(=O)N3CCCC3)c(NC(=O)CCl)c2)c(=O)n(C)c1 [Compound 32, N-(3-(5-((3-chloroacetamide-4-(pyrrolidin-1-carbonyl)phenyl)amino)-1-methyl-6-oxo-1,6-dihydropyridin-3-yl)-2-methylphenyl)-4-(tert-butyl)benzamide]",0.029
3,"C#CC(=O)Nc1cc(C(=O)N2CCOCC2)ccc1Nc1cc(-c2cccc(NC(=O)c3ccc(C(C)(C)C)cc3)c2C)cn(C)c1=O [Compound 4, N-(3-(5-((2-propynamide-4-(morpholin-4-carbonyl)phenyl)amino)-1-methyl-6-oxo-1,6-dihydropyridin-3-yl)-2-methylphenyl)-4-(tert-butyl)benzamide]",0.0326
4,"C=CC(=O)Nc1cc(Nc2cc(-c3cccc(NC(=O)c4ccc(C(C)(C)C)cc4)c3C)cn(C)c2=O)ccc1C(=O)N(C)C [Compound 28, 2-acrylamide-4-((5-(3-(4-(tert-butyl)benzamide)-2-methylphenyl)-1-methyl-2-oxo-1,2-dihydropyridin-3-yl)amino)-N,N-dimethylbenzoylamide]",0.025
5,"Cc1ccc(Nc2cc(-c3cccc(NC(=O)c4ccc(C(C)(C)C)cc4)c3C)cn(C)c2=O)cc1NC(=O)CCl [Compound 26, N-(3-(5-((3-chloroacetamide-4-methylphenyl)amino)-1-methyl-6-oxo-1,6-dihydropyridin-3-yl)-2-methylphenyl)-4-(tert-butyl)benzamide]",0.223
6,"C=CC(=O)Nc1cc(Nc2cc(-c3cccc(NC(=O)c4ccc(C(C)(C)C)cc4)c3C)cn(C)c2=O)ccc1C(=O)N1CCN(C)CC1 [Compound 3, N-(3-(5-((3-acrylamide-4-(4-methylpiperazin-1-carbonyl)phenyl)amino)-1-methyl-6-oxo-1,6-dihydropyridin-3-yl)-2-methylphenyl)-4-(tert-butyl)benzamide]",0.144
7,"C=CC(=O)Nc1cc(Nc2cc(-c3cccc(NC(=O)c4ccc(C)cc4)c3C)cn(C)c2=O)ccc1C(=O)N1CCOCC1 [Compound 9, N-(3-(5-((3-acrylamide-4-(morpholin-4-carbonyl)phenyl)amino)-1-methyl-6-oxo-1,6-dihydropyridin-3-)-2-methylphenyl)-4-(methyl)benzoylamide]",0.0889
8,"C=CC(=O)Nc1cc(Nc2cc(-c3cccc(NC(=O)c4ccc(N(C)C)cc4)c3C)cn(C)c2=O)ccc1C(=O)N1CCC(OC)CC1 [Compound 52, N-(3-(5-((3-acrylamide-4-(4-methoxypiperidin-1-carbonyl)phenyl)amino)-1-methyl-6-oxo-1,6-dihydropyridin-3-yl)-2-methylphenyl)-4-(dimethylamino)benzoylamide]",0.586
9,"C=CC(=O)Nc1cc(Nc2cc(-c3cccc(NC(=O)c4ccc5c(c4)OCO5)c3C)cn(C)c2=O)ccc1C(=O)N1CCOCC1 [Compound 18, N-(3-(5-((3-acrylamide-4-(morpholin-4-carbonyl)phenyl)amino)-1-methyl-6-oxo-1,6-dihydropyridin-3-yl)-2-methylphenyl)-benzo[d][1,3]dioxolanyl-5-carboxamide]",0.187
10,"C=CC(=O)Nc1cc(Nc2cc(-c3cccc(NC(=O)c4ccc(N(C)C)cc4)c3C)cn(C)c2=O)ccc1C(=O)NCCOC [Compound 53, 2-acrylamide-4-((5-(3-(4-(dimethylamino)benzoylamide)-2-methylphenyl)-1-methyl-2-oxo-1,2-dihydropyridin-3-yl)amino)-N-(2-methoxyethyl)benzoylamide]",0.667
11,"Cc1c(NC(=O)c2ccc(N3CCOCC3)cc2)cccc1-c1cc(Nc2ccc(C(=O)N3CCOCC3)c(NC(=O)CCl)c2)c(=O)n(C)c1 [Compound 16, N-(3-(5-((3-chloroacetamide-4-(morpholin-4-carbonyl)phenyl)amino)-1-methyl-6-oxo-1,6-dihydropyridin-3-yl)-2-methylphenyl)-4-morpholinbenzoylamide]",0.437
12,"C=CC(=O)Nc1cc(Nc2cc(-c3cccc(NC(=O)c4ccc(C(C)(C)C)cc4)c3C)cn(C)c2=O)ccc1C(=O)NC1CC1 [Compound 46, 2-acrylamide-4-((5-(3-(4-(tert-butyl)benzamide)-2-methylphenyl)-1-methyl-2-oxo-1,2-dihydropyridin-3-yl)amino)-N-cyclopropylbenzoylamide]",0.045
13,"C=CC(=O)Nc1cc(Nc2cc(-c3cccc(NC(=O)c4ccc(N(C)C)cc4)c3C)cn(C)c2=O)ccc1C(=O)N1CCCCC1 [Compound 50, N-(3-(5-((3-acrylamide-4-(piperidin-1-carbonyl)phenyl)amino)-1-methyl-6-oxo-1,6-dihydropyridin-3-yl)-2-methylphenyl)-4-(dimethylamino)benzoylamide]",0.091

# Continued, values first:
row,IC50 [µM],Compound
1,0.0988,"C=CC(=O)Nc1cc(Nc2cc(-c3cccc(NC(=O)c4cc5ccccc5s4)c3C)cn(C)c2=O)ccc1N1CCOCC1 [Compound 82, N-(3-(5-((3-acrylamide-4-morpholinophenyl)amino)-1-methyl-6-oxo-1,6-dihydropyridin-3-yl)-2-methylphenyl)benzo[b]thiophene-2-carboxamide]"
2,0.025,"C=CC(=O)Nc1cc(Nc2cc(-c3cccc(NC(=O)c4cc5c(s4)CCCC5)c3C)cn(C)c2=O)ccc1C(=O)N1CCOCC1 [Compound 65, N-(3-(5-((3-acrylamide-4-(morpholin-4-carbonyl)phenyl)amino)-1-methyl-6-oxo-1,6-dihydropyridin-3-yl)-2-methylphenyl)-4,5,6,7-tetrahydrobenzo[b]thiophene-2-carboxamide]"
3,0.156,"C=CC(=O)Nc1cc(Nc2cc(-c3cccc(NC(=O)c4cc5ccccc5s4)c3C)cn(C)c2=O)ccc1N1CCN(CC)CC1 [Compound 91, N-(3-(5-((3-acrylamide-4-(4-ethylpiperazin-1-yl)phenyl)amino)-1-methyl-6-oxo-1,6-dihydropyridin-3-yl)-2-methylphenyl)benzo[b]thiophene-2-carboxamide]"
4,0.0065,"C=CC(=O)Nc1cc(Nc2cc(-c3cccc(NC(=O)c4cc5ccccc5s4)c3C)cn(C)c2=O)ccc1N1CCN(C(C)C)CC1 [Compound 90, N-(3-(5-((3-acrylamide-4-(4-isopropylpiperazin-1-yl)phenyl)amino)-1-methyl-6-oxo-1,6-dihydropyridin-3-yl)-2-methylphenyl)benzo[b]thiophene-2-carboxamide]"
5,0.0231,"C=CC(=O)Nc1cc(Nc2cc(-c3cccc(NC(=O)c4cc5c(s4)CCCC5)c3C)cn(C)c2=O)ccc1N1CCN(C(C)C)CC1 [Compound 89, N-(3-(5-((3-acrylamide-4-(4-isopropylpiperazin-1-yl)phenyl)amino)-1-methyl-6-oxo-1,6-dihydropyridin-3-yl)-2-methylphenyl)-4,5,6,7-tetrahydrobenzo[b]thiophene-2-carboxamide]"
6,0.8,"C=CC(=O)Nc1cc(Nc2cc(-c3cccc(NC(=O)c4ccc(C)c(C(F)(F)F)c4)c3C)cn(C)c2=O)ccc1C(=O)N1CCOCC1 [Compound 63, N-(3-(5-((3-acrylamide-4-(morpholin-4-carbonyl)phenyl)amino)-1-methyl-6-oxo-1,6-dihydropyridin-3-yl)-2-methylphenyl)-4-methyl-3-(trifluoromethyl)benzoylamide]"
7,0.0154,"C=CC(=O)Nc1cc(Nc2cc(-c3cccc(NC(=O)c4cc5ccccc5s4)c3C)cn(C)c2=O)ccc1N(C)C [Compound 93, N-(3-(5-((3-acrylamide-4-(dimethylamino)phenyl)amino)-1-methyl-6-oxo-1,6-dihydropyridin-3-yl)-2-methylphenyl)benzo[b]thiophene-2-carboxamide]"
8,0.025,"CCC(=O)Nc1cc(Nc2cc(-c3cccc(NC(=O)c4cc5c(s4)CCCC5)c3C)cn(C)c2=O)ccc1C(=O)N1CCOCC1 [Compound 67, N-(3-(5-((3-propanamide-4-(morpholin-4-carbonyl)phenyl)amino)-1-methyl-6-oxo-1,6-dihydropyridin-3-yl)-2-methylphenyl)-4,5,6,7-tetrahydrobenzo[b]thiophene-2-carboxamide]"
9,0.0099,"C=CC(=O)Nc1cc(Nc2cc(-c3cccc(NC(=O)c4cc5c(s4)CCCC5)c3C)cn(C)c2=O)ccc1-n1cccn1 [Compound 86, N-(3-(5-((3-acrylamide-4-(1H-pyrazol-1-yl)phenyl)amino)-1-methyl-6-oxo-1,6-dihydropyridin-3-yl)-2-methylphenyl)-4,5,6,7-tetrahydrobenzo[b]thiophene-2-carboxamide]"
